# Assay results published in paper PMC3419607, “Effect of Alpinia zerumbet components on antioxidant and skin diseases-related enzymes” (BMC Complementary and Alternative Medicine, 2012).
# Experiments:
# [1] = target: Collagenase from Clostridium histolyticum (ChC); test: Collagenase inhibition assay (FALGPA substrate); type: biochemical; conditions: plant parts: aqueous extract
# Experimental: Collagenase inhibition assay was performed by the method described previously which based on the hydrolysis of N-[3-(2-furyl)acryloyl]-Leu-Gly-Pro-Ala (FALGPA) by collagenase to produce FA-Leu and Gly-Pro-Ala. The assay was performed in 50 mM Tricine buffer (400 mM NaCl and 10 mM CaCl2, pH 7.5). Collagenase from Clostridium histolyticum (ChC) was dissolved in the buffer for use at an initial concentration of 0.8 units/ ml. The synthetic substrate, FALGPA, was dissolved in the Tricine buffer to 2 mM. Sample extracts were incubated with the enzyme in the buffer for 15 min before adding substrate to start reaction. The final reaction mixture (150 μl total volume) contained Tricine buffer, 0.8 mM of FALGPA, 0.1 units of ChC and 25 μg of test extracts. Controls were performed with water and methanol, while oleanolic acid as a positive control. After adding substrate for 20 min, collagenase activity was measured at 340 nm.
# The percentage inhibition for collagenase, elastase and hyaluronidase assays were calculated by:
# Enzyme inhibition activity (%) = (1– B/A) x 100, where A is the enzyme activity without sample and B is the activity in presence of the sample.
# [2] = DPPH radical scavenging activity assay; conditions: 30 min, 517 nm
# Experimental: The free radical scavenging activity was evaluated as described previously. Five hundred microlilters of the different concentration of test samples were mixed with 200 μl of 0.5 mM DPPH methanol solution and 500 μl of 0.1 M sodium acetate buffer (pH 5.5). After shaking, the mixture was incubated in the dark at room temperature for 30 min, and then the absorbance was measured at 517 nm. BHT was used as a positive control, while water and methanol were used as controls for calculation.
# (§1) The ability of the extracts to scavenge DPPH, ABTS^·+, PMS-NADH radicals were calculated by following formula:
# (§2) Radical scavenging (%) = [(O.Dcontrol – O.Dsample)/ O.Dcontrol] x 100,
# (§3) where O.D is the optical density in the presence or absence of the samples.
# [3] = Total antioxidant activity (ABTS) assay; conditions: ABTS radical scavenging, 6 min, 734 nm
# Experimental: The total antioxidant activity of test sample was measured with modified method as described previously. ABTS^·+ solution was generated by mixing 7 mM ABTS and 2.45 mM potassium persulfate (K2S2O8) in water, which was placed in the dark at room temperature for 16 h to give the complete oxidation of ABTS. Before using, the ABTS^·+ solution was diluted with water to get an absorbance of 0.700 ± 0.050 at 734 nm. Briefly, 1 ml of ABTS^·+ solution was added to 30 μl of test samples and mixed thoroughly. BHT was used as positive control and the sample solutions were used as controls. The reactive mixture was incubated at room temperature for 6 min and the absorbance was immediately recorded at 734 nm.
# as §1, §2, §3
# [4] = PMS-NADH system superoxide-radical scavenging assay; conditions: 560 nm
# Experimental: The superoxide scavenging activity was assayed following the method of Lau et al. with minor modifications. The reaction mixture contained 0.5 ml of 105 μM NADH, 0.5 ml of 66 μM NBT dissolved in 0.1 M phosphate buffer (pH 7.4) and 0.1 ml sample in different concentrations. The reaction was initiated by adding 0.5 ml of 30 μM PMS into the reaction mixture. Methanol and water were used as a control and BHT as a positive control. After 10 min, the reaction mixture reached to stable color, measurement of absorbance was conducted at 560 nm.
# as §1, §2, §3
# [5] = target: T1, elastase from porcine pancreas (Sus scrofa, UniProt P00772); test: Elastase inhibition assay (SANA substrate); type: biochemical; conditions: plant parts: aqueous extract
# T1 construct: from tissue; host or cells: porcine pancreas
# From the text: The inhibitory activity determined the intensity of color released during cleavage of SANA by the action of elastase.
# [6] = target: T2, hyaluronidase from bovine test (Bos taurus, UniProt Q2YDK3); test: Hyaluronidase inhibition assay; type: biochemical; conditions: plant parts: aqueous extract
# T2 construct: from tissue; host or cells: bovine testes (printed 'bovine test')
# T2 sequence (Q2YDK3 36-553): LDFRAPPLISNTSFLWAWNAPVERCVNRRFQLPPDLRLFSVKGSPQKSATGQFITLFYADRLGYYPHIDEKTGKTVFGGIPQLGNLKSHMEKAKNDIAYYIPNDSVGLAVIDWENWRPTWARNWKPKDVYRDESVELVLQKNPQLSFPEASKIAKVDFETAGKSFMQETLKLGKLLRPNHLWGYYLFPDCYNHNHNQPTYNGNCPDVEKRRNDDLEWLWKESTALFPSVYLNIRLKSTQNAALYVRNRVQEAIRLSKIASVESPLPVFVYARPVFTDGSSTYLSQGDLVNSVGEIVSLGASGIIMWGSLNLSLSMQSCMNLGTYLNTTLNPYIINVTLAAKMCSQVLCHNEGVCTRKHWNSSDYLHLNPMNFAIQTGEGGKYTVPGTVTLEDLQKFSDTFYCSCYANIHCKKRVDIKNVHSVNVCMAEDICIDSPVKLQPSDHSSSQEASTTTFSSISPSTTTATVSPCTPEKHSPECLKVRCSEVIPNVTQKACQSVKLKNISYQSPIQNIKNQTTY
# T1 sequence (P00772 27-266): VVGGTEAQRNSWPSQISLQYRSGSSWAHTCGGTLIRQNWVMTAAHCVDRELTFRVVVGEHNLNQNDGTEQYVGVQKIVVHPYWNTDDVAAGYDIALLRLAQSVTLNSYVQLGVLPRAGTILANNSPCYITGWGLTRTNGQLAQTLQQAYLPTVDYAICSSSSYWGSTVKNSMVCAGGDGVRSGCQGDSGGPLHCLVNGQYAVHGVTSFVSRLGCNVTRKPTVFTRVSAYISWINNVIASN
Structure (SMILES),IC50 collagenase inhibition [1] [µg/mL],Inhibitory effect (IC50) DPPH [2],Inhibitory effect (IC50) ABTS [3],Inhibitory effect (IC50) PMS-NADH [4],IC50 [5] [µM],IC50 [6] [µM]
"CC1(C)CC[C@]2(C(=O)O)CC[C@]3(C)C(=CC[C@@H]4[C@@]5(C)CC[C@H](O)C(C)(C)[C@@H]5CC[C@]43C)[C@@H]2C1 [oleanolic acid, reference compound]",17.95 ± 0.23,–,–,–,–,–
"COc1cc(/C=C/c2ccccc2)oc(=O)c1 [DK, 5,6-dehydrokawain]",24.93 ± 0.97,122.14 ± 1.40 µg/mL,110.08 ± 3.34 µg/mL,127.78 ± 4.75 µg/mL,85,85.3
"Cc1cc(C(C)(C)C)c(O)c(C(C)(C)C)c1 [BHT, tert-butyl hydroxytoluene, reference compound]",–,11.74 ± 0.15 a ^1 μg/mL,14.26 ± 0.16 a μg/mL,24.80 ± 0.98 a μg/mL,–,–
